What all share (assay type): ADME, organism-based
A short description of series [1]: Cmax in Balb/c mouse at 25 mg/kg, po. The arrangement: dose 25 mg/kg, route oral. The settings on record: in vivo.
The nature of series [2]: AUClast in Balb/c mouse at 25 mg/kg, po. The arrangement: dose 25 mg/kg, route oral, time 0 - last. The settings on record: in vivo.
The nature of series [3]: Oral bioavailability in Balb/c mouse at 25 mg/kg. The settings on record: in vivo.
Series [4] can be described thus: AUClast in Balb/c mouse at 3 mg/kg, iv. Further details: dose 3 mg/kg, route intravenous, time 0 - last. The settings on record: in vivo.
Series [5] can be described thus: Volume of distribution at steady state in Balb/c mouse at 3 mg/kg, iv. The settings on record: in vivo, read-out: Vdss.

These results are taken from ChEMBL document CHEMBL4251544, “Identification of imidazo[1,2-b]pyridazine TYK2 pseudokinase ligands as potent and selective allosteric inhibitors of TYK2 signalling” (Medchemcomm, 2017).

For orientation: Cmax means the peak of the concentration-time curve. Broadly, the AUC(0-t) is exposure summed from dosing to a finite time, without extrapolation to infinity. In general, bioavailability refers to the share of a dose that reaches the circulation, judged against a reference dose that is usually intravenous. Lower therefore signals little systemic uptake.

In turn, `CNc1cc(Nc2cc(F)cc(F)c2OC)nn2c(C(=O)NC[C@](C)(O)CO)cnc12` showed a Cmax in series [1] of 2800 nM. In addition, the AUC(0-t) is 5.1 µM·h in series [2] and 2.3 µM·h in series [4]. The same compound came in with a bioavailability in series [3] of 27%. The Vd in series [5] came to 6.3 L/kg.
